The species entered for data set [1] is Rattus norvegicus. Kind of data set: Uptake of [GD] in bone 1 hr post injection with 0.10 of the compound. The format is functional, Bone element.
Data set [2] can be described thus: Uptake of [GD] in bone 1 hr post injection with 0.01 to that of muscle. It is filed as functional, Muscle tissue.
For data set [3], the species on record is Rattus norvegicus. The data set can be described thus: Uptake of [GD] in bone 1 hr post injection with 0.05 of the compound. The format is functional, Bone element.
Data set [4] in a line: Ratio of uptake of [GD] in bone 1 hr post injection with 0.10 to that of blood. It is filed as functional.
Data set [5] is described as follows: Ratio of uptake of [GD] in bone 1 hr post injection with 0.01 to that of blood. It is filed as functional.
The species entered for data set [6] is Rattus norvegicus. The data set can be described thus: Uptake of [GD] in bone 1 h post injection with 0.01 of the compound. The format is functional, Bone element.
The nature of data set [7]: Ratio of uptake of [GD] in bone 1 hr post injection with 0.05 to that of blood. It is filed as functional.
Data set [8] can be described thus: Ratio of uptake of [GD] in bone 1 hr post injection with 0.10 to that of muscle. The format is functional.
The nature of data set [9]: Ratio of uptake of [GD] in bone 1 hr post injection with 0.05 to that of muscle. The format is functional.
The nature of data set [10]: Ratio of uptake of [GD] in bone 1 hr post injection with 0.0005 to that of muscle. The format is functional.
Data set [11] is filed under the species Rattus norvegicus. Kind of data set: Biodistribution in rat spleen in the presence of NCAGd/0.01 M lig. It is filed as ADME, organism-based. Particulars: in vivo.
For data set [12], the species on record is Rattus norvegicus. The data set can be described thus: Uptake of [GD] in bone 1 hr post injection with 0.005 of the compound. The format is functional, Bone element.
A short description of data set [13]: Ratio of uptake of [GD] in bone 1 hr post injection with 0.005 to that of muscle. It is filed as functional.
For data set [14], the species on record is Rattus norvegicus. The data set can be described thus: Biodistribution in rat bone in the presence of NCAGd/0.01 M lig. The conditions noted are these: in vivo. The format is ADME, organism-based, Bone element.
The species entered for data set [15] is Rattus norvegicus. Kind of data set: Uptake of [GD] in bone 1 hr post injection with 0.002 of the compound. It is filed as functional, Bone element.
Data set [16] in a line: Ration of Uptake of [GD] in bone 1 hr post injection with NCA GD dose to that of muscle. It is filed as functional.
The species named for data set [17] is Rattus norvegicus. Kind of data set: Biodistribution in rat liver by in the presence of NCAGd/0.01 M lig. It is filed as ADME, organism-based. The conditions noted are these: in vivo.
Data set [18] in a line: Ratio of uptake of [GD] in bone 1 hr post injection with 0.0005 to that of blood. It is filed as functional.
Data set [19] can be described thus: Ratio of uptake of [GD] in bone 1 hr post injection with 0.002 to that of muscle. The format is functional.
Data set [20] is filed under the species Rattus norvegicus. Kind of data set: Uptake of [GD] in bone 1 hr post injection with 0.0005 of the compound. The format is functional, Bone element.
The species named for data set [21] is Rattus norvegicus. Kind of data set: Biodistribution in rat blood in the presence of NCAGd/0.01 M lig. The conditions noted are these: in vivo. The format is ADME, organism-based.
Data set [22] is filed under the species Rattus norvegicus. The data set can be described thus: Biodistribution in rat heart in the presence of NCAGd/0.01 M lig. Particulars: in vivo. The format is ADME, organism-based.
Data set [23] is filed under the species Rattus norvegicus. The data set can be described thus: Biodistribution in rat kidney in the presence of NCAGd/0.01 M lig. The conditions noted are these: in vivo. The format is ADME, organism-based.
The species entered for data set [24] is Rattus norvegicus. Kind of data set: Biodistribution in rat muscle in the presence of NCAGd/0.01 M lig. It is filed as ADME, organism-based, Muscle tissue. The conditions noted are these: in vivo.
Data set [25] can be described thus: Ratio of uptake of [GD] in bone 1 hr post injection with 0.005 to that of blood. The format is functional.
The nature of data set [26]: Ratio of uptake of [GD] in bone 1 hr post injection with NCA GD dose to that of blood. The format is functional.
The species entered for data set [27] is Rattus norvegicus. The data set can be described thus: Uptake of [GD] in bone 1 hr post injection with NCA GD dose. The format is functional, Bone element.
A short description of data set [28]: Ratio of uptake of [GD] in bone 1 hr post injection with 0.002 to that of blood. The format is functional.

For `O=C(O)CN(CCN(CC(=O)O)CC(=O)O)CCN(CC(=O)O)CC(=O)NCCCP(=O)(O)OP(=O)(O)O`, the ID in the data set filed under Rattus norvegicus [1] was 13.7%; in the data set filed under Rattus norvegicus [3], 17.6%; in the data set filed under Rattus norvegicus [6] it was 22.9%. Further, the Ratio in [2] is given as 5.39; in data set [4], 8.56; in [5], 2.12; in data set [7], 6.42; in [8] it was 2.76; in data set [9] it was 3.38.
On to `CC(O)C(C)NCCNC(C)C(C)O` (stereo not drawn), for which the Ratio came to 2.19% in data set [10]; 1.67% in data set [13]; 8.81% in [16]; 0.234% in data set [18]; 1.81% in data set [19]; 0.167% in [25]. Besides, the Ratio in data set [26] was 16.5%; in data set [28], 0.206%. Moreover, the ID/organ in the data set listed under Rattus norvegicus [11] stood at 0.44%; in the data set listed under Rattus norvegicus [14] it was 51.4%; in the data set filed under Rattus norvegicus [17], 28.5%; in the data set filed under Rattus norvegicus [21], 3.12%; in the data set filed under Rattus norvegicus [22] it was 0.295%; in the data set listed under Rattus norvegicus [23], 2.87%. Further, the ID/organ in the data set listed under Rattus norvegicus [24] stood at 5.85%. The ID in the data set listed under Rattus norvegicus [12] came to 5.07%; in the data set listed under Rattus norvegicus [15], 6.9%; in the data set filed under Rattus norvegicus [20] it was 6.54%; in the data set filed under Rattus norvegicus [27], 51.4%.
